# Patent publication US9232796B2, “Herbicidal compositions comprising 4-amino-3-chloro-5-fluoro-6-(4-chloro-2-fluoro-3-methoxyphenyl) pyridine-2-carboxylic acid or a derivative thereof and acetyl-CoA carboxylase (ACCase) inhibitors” (DOW AGROSCIENCES LLC, priority 2012, dated 2016)
# “And” between values parts separate entries of the source, which are not always exact repeats. Equal values may be shown once.
# How the values were obtained:
# ECHCG = test: Example V (second) postemergence foliar-applied ternary mixtures, greenhouse, direct seeded rice weeds; assay type: in vivo, Echinochloa crus-galli (L.) Beauv.
# Procedure, shortened: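 Compound A (SC, acid equivalent), an ACCase inhibitor and a third herbicide were sprayed alone and as ternary mixtures postemergence at 187 L/ha with 1.25% v/v crop oil concentrate on greenhouse plants at the 1st–4th true leaf stage (29/26 °C day/night, ~14 h photoperiod). Injury was scored visually at ~3 weeks (0–100%) against untreated plants, and Colby's equation gave the expected mixture effects.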
# IPOHE [1] = test: as above; assay type: in vivo, Ipomoea hederacea Jacq.
# Method: (§1) The treated plants and control plants were placed in a greenhouse as described above and watered by sub-irrigation to prevent wash-off of the test compounds. After approximately 3 weeks, the condition of the test plants as compared with that of the untreated plants was determined visually and scored on a scale of 0 to 100 percent where 0 corresponds to no injury or growth inhibition and 100 corresponds to complete kill.
# (§2) Colby's equation was used to determine the herbicidal effects expected from the mixtures (Colby, S. R. 1967. Calculation of the synergistic and antagonistic response of herbicide combinations. Weeds 15:20-22.).
# (§3) The following equation was used to calculate the expected activity of mixtures containing three active ingredients, A, B, and C: Expected=A+B+C−((A×B+A×C+B×C)/100)+(A×B×C/10000)
# SCPJU = test: as above; assay type: in vivo, Schoenoplectus juncoides (Roxb.) Palla
# Description: Seeds or nutlets of the desired test plant species were planted in a soil matrix prepared by mixing a sandy loam or loam soil (e.g., 32 percent silt, 23 percent clay, and 45 percent sand, with a pH of about 6.5 and an organic matter content of about 1.9 percent) and calcareous grit in an 80 to 20 ratio. The soil matrix was contained in plastic pots with a volume of 1 quart and a surface area of 83.6 square centimeters (cm^2). When required to ensure good germination and healthy plants, a fungicide treatment and/or other chemical or physical treatment was applied. The plants were grown for 8-22 days in a greenhouse with an approximate 14 hr. photoperiod which was maintained at about 29° C. during the day and 26° C. during the night. Nutrients (Peters Excel® 15-5-15 5-Ca 2-Mg and iron chelate) were applied in the irrigation solution as needed and water was added on a regular basis. Supplemental lighting was provided with overhead metal halide 1000-Watt lamps as necessary. The plants were employed for testing when they reached the first through fourth true leaf stage.
# Treatments consisted of the benzyl ester of 4-amino-3-chloro-5-fluoro-6-(4-chloro-2-fluoro-3-methoxy-phenyl)pyridine-2-carboxylic acid (Compound A), formulated as an SC (suspension concentrate), an ACCase inhibitor, and a third herbicidal component, each applied alone and in ternary combination. Forms of compound A were applied on an acid equivalent basis.
# The ACCase inhibitor component was applied on an active ingredient basis and included cyhalofop-R-butyl formulated as Clincher® SF, fenoxaprop-p-ethyl formulated as RiceStar® HT, and profoxydim formulated as Aura® 20EC. Other herbicidal components were applied on an active ingredient or acid equivalent basis depending on the compound and included penoxsulam formulated as Grasp® SC, bentazon sodium formulated as Basagran®, triclopyr […] (TEA) salt formulated as Grandstand® R, bispyribac sodium formulated as Regiment® 80WP, imazamox ammonium formulated as Beyond®, benzobicyclon, quinclorac formulated as Facet® 75DF, glyphosate dimethylammonium (DMA) salt formulated as Durango® DMA, glufosinate ammonium formulated as Ignite® 280, fentrazamide formulated as an emulsifiable concentrate (EC), propyrisulfuron formulated as Zeta One®, and indanofan (technical grade material).
# Treatment requirements were calculated based upon the rates being tested, the concentration of active ingredient or acid equivalent in the formulation, and a 12 mL application volume at a rate of 187 L/ha.
# For treatments comprised of formulated compounds, measured amounts of compounds were placed individually in 25 mL glass vials and diluted in a volume of 1.25% (v/v) Agri-Dex® crop oil concentrate to obtain 12× stock solutions. […]
# IPOHE [2] = test: as above; assay type: in vivo, Ipomoea hederacea Jacq.; remark: listed apart in the source
# Description: All stock solutions and applications solutions were visually inspected for compound compatibility prior to application. Spray solutions were applied to the plant material with an overhead Mandel track sprayer equipped with a 8002E nozzles calibrated to deliver 187 L/ha over an application area of 0.503 m^2 at a spray height of 18 inches (46 cm) above average plant canopy height. Control plants were sprayed in the same manner with the solvent blank.
# as §1, §2, §3
# FIMMI = test: Example V post-emergence field trials in direct-seeded rice; assay type: in vivo, Fimbristylis miliacea; conditions: foliar, field trial Tolima, Colombia
# Method: Multiple field trials were conducted under commercial grower field conditions in Tolima, Colombia; Thessaloniki, Greece; Bianze and Copiano, Italy; and Humphrey, Ark., USA. Trials sites were located in commercially grown fields of direct-seeded rice (Oryza sativa) using standard herbicide small plot research methodology. Plots varied from 2 to 3 meter (m)×5 to 8 m (width×length) with 4 replicates per treatment. The rice crop was grown using normal cultural practices for fertilization, seeding, watering, flooding and maintenance to ensure good growth of the crop and the weeds.
# All treatments in the field trials were applied using a backpack compressed air/gas sprayer with flat fan nozzles (80° or 110°) calibrated to apply 187 to 300 L/ha spray volume at approximately 200-400 kPa nozzle pressure. Commercially available products of cyhalofop-butyl (Clincher 180EC, Clincher 200EC, and Clincher SF (285 gr ai/L EC)) were mixed in water at appropriate formulated product rates to achieve the desired rates based on a unit area of application (hectare) to achieve the desired rates as shown. Treatments were rate at 19 to 58 days after application (DAA) as compared to the untreated control plants. Visual weed control was scored on a scale of 0 to 100 percent where 0 corresponds to no injury and 100 corresponds to complete kill. […]
# ECHCO = test: Example V (second) postemergence foliar-applied ternary mixtures, greenhouse, direct seeded rice weeds; assay type: in vivo, Echinochloa colona (L.) Link
# Method: as §1, §2, §3
structure (smiles),measurement,setting,value
"COc1c(Cl)ccc(-c2nc(C(=O)OCc3ccccc3)c(Cl)c(N)c2F)c1F [Compound A Benzyl Ester, benzyl ester of 4-amino-3-chloro-5-fluoro-6-(4-chloro-2-fluoro-3-methoxy-phenyl)pyridine-2-carboxylic acid]",Visual Weed Control (%) - 21 DAA ECHCG Obs,ECHCG; 2.19 gae/ha,5%
same,Visual Weed Control (%) - 21 DAA ECHCG Obs,ECHCG; 4.38 gae/ha,27%
same,Visual Weed Control (%) - 21 DAA ECHCG Obs,ECHCG; 8 gae/ha,38% and 45%
same,Visual Weed Control (%) - 22 DAA ECHCG Obs,ECHCG; 8 gae/ha,40%
same,Visual Weed Control (%) - 22 DAA ECHCG Obs,ECHCG; 16 gae/ha,58%
same,Visual Weed Control (%) - 21 DAA IPOHE Obs,"IPOHE [1]; 2.19 gae/ha, upper sub-table",30%
same,Visual Weed Control (%) - 21 DAA IPOHE Obs,"IPOHE [1]; 4.38 gae/ha, upper sub-table",38%
same,Visual Weed Control (%) - 21 DAA IPOHE Obs,IPOHE [1]; 8 ae/ha,20%
same,Visual Weed Control (%) - 21 DAA IPOHE Obs,IPOHE [1]; 8 gae/ha,10%
same,Visual Weed Control (%) - 21 DAA IPOHE Obs,"IPOHE [1]; 8 gae/ha, lower sub-table",15%
same,Visual Weed Control (%) - 21 DAA IPOHE Obs,IPOHE [1]; 16 gae/ha,30%
same,Visual Weed Control (%) - 21 DAA IPOHE Obs,"IPOHE [1]; 16 gae/ha, lower sub-table",33%
same,Visual Weed Control (%) - 21 DAA SCPJU Obs,SCPJU; 2.19 gae/ha,65%
same,Visual Weed Control (%) - 21 DAA SCPJU Obs,SCPJU; 4.38 gae/ha,96%
same,Visual Weed Control (%) - 21 DAA IPOHE Obs,IPOHE [2]; 8 gae/ha,15%
same,Visual Weed Control (%) - 21 DAA IPOHE Obs,IPOHE [2]; 16 gae/ha,33%
same,Visual Weed Control (%) - 19 DAA FIMMI Obs,FIMMI; 24 gae/ha,39%
same,Visual Weed Control (%) - 21 DAA ECHCO Obs,ECHCO; 2.19 gae/ha,10%
same,Visual Weed Control (%) - 21 DAA ECHCO Obs,ECHCO; 4.38 gae/ha,25%
same,Visual Weed Control (%) - 21 DAA ECHCO Obs,ECHCO; 8 gae/ha,45%
"CCCCOC(=O)[C@@H](C)Oc1ccc(Oc2ccc(C#N)cc2F)cc1 [Cyhalofop-butyl, butyl(2R)-2-[4-(4-cyano-2-fluorophenoxy)phenoxy]propanoate, reference compound]",Visual Weed Control (%) - 21 DAA ECHCG Obs,ECHCG; 17.5 gai/ha,33%
same,Visual Weed Control (%) - 22 DAA ECHCG Obs,ECHCG; 17.5 gai/ha,0%
same,Visual Weed Control (%) - 21 DAA ECHCG Obs,ECHCG; 35 gai/ha,20%
same,Visual Weed Control (%) - 22 DAA ECHCG Obs,ECHCG; 35 gai/ha,12%
same,Visual Weed Control (%) - 21 DAA IPOHE Obs,IPOHE [1]; 17.5 gai/ha,0%
same,Visual Weed Control (%) - 21 DAA IPOHE Obs,IPOHE [1]; 35 gai/ha,0%
same,Visual Weed Control (%) - 21 DAA IPOHE Obs,"IPOHE [1]; 35 gai/ha, lower sub-table",0%
same,Visual Weed Control (%) - 21 DAA IPOHE Obs,"IPOHE [1]; 35 gai/ha, upper sub-table",0%
same,Visual Weed Control (%) - 21 DAA SCPJU Obs,SCPJU; 35 gai/ha,0%
same,Visual Weed Control (%) - 21 DAA IPOHE Obs,IPOHE [2]; Cyhalofop-butyl 35 gai/ha,0%
same,Visual Weed Control (%) - 19 DAA FIMMI Obs,FIMMI; 190 gai/ha,16%
same,Visual Weed Control (%) - 21 DAA ECHCO Obs,ECHCO; 35 gai/ha,37% and 40%
